Results on twelve molecules are retold here after patent publication US4013507A, “Ionene polymers for selectively inhibiting the vitro growth of malignant cells” (California Institute of Technology, priority 1975, dated 1977).

One data set in a line: in vivo. As to conditions: mouse. The source says: Due to the high positive charge density and high water solubility, ionenes strongly interact with a wide variety of cell materials.
Data set [1] in a line: Protective action of heparin against toxicity of 6,3-ionene bromide, mice. The format is in vivo. The text has this:
(§1) This is not surprising considering the formation of relatively stable complexes between ionenes and heparin.

Data set [2] can be described thus: Protective action of heparin against toxicity of 6,3-ionene bromide, dogs. The format is in vivo.
Source text: as §1

The next data set concerns DNA. As to conditions: polyamines, general knowledge; cited from earlier work.
For a further data set, the system named is L1210 leukemia system. As to conditions: when quaternized; J. Med. Chem. 10, 706, 1967; cited from earlier work.
Data set [3] is described as follows: Repeated-dose tolerance of PC-6 and cyclophosphamide in mice. The format is in vivo. The conditions noted are these: similar doses to nine doses of 100 mg/kg per day.
Data set [4] in a line: i.v. LD50 of clinically used antiheparin agents (comparison). The text has this:
Protamine sulfate and toluidine blue, neither of which are free of toxic effects, are clinically used as antiheparin agents.

Data set [5] concerns sulfhydryl groups on the cell periphery. The data set is described as follows: Effect of N-ethylmaleimide pretreatment on cell adhesion to ionene-coated surface. As to conditions: pretreatment of the cells. It is filed as cell-based. The text has this:
Chemical interaction with DNA is also a possibility. In fact, ionenes form strong waterinsoluble complexes with DNA.

In the case of `C[N+]1(C)CC[N+](C)(C)CC1`, the LD50 in the data set “in vivo” (ip) and in “in vivo” (po) was greater than 1000 mg/kg each time.

As to Heparin, in data set [1] (6,3-ionene bromide doses relative to LD50, heparin pretreatment), the “Survival of mice pretreated with heparin” value was “survive doses three times the LD50 values with only mild toxicity symptoms”. For the same molecule, the “Protective action in neutralizing the toxicity of 6,3-ionene bromide” value in data set [1] (mice) and in data set [2] was “offers a protective action in neutralizing the toxicity of 6,3-ionene bromide” throughout.

Turning to `NCCCNCCCCNCCCN` [Spermine, NH2 (CH2)3 NH(CH2)4 NH(CH2)3 NH2], in the data set with DNA, the “Binding to DNA” value is “bind to DNA”.

For `C[N+](C)(CCBr)CCCCCC[N+](C)(C)CCBr`, the 50% lethal dose (LD50) in “in vivo” (ip) fell in the range of 10 to 50 mg/kg; in the data set “in vivo” (po) it was 100 to 200 mg/kg.

As for `O=C(Nc1ccc(-c2ccncc2)cc1)c1ccc(C(=O)Nc2ccc(-c3ccncc3)cc2)cc1`, in the data set on L1210 leukemia system, the “Effectiveness against L1210 leukemia system” value is given as “very effective against the L1210 leukemia system when quaternized”.

For `O=P1(N(CCCl)CCCl)NCCCO1` (stereo not drawn) [cyclophosphamide], the “Lethality of similar doses” value in data set [3] is “lethal within a much shorter time”.

Regarding `C[N+](C)(CBr)CCCCCC[N+](C)(C)CBr`, the LD50 in the data set “in vivo” (ip) lay within 10 to 50 mg/kg; in “in vivo” (po), 300 to 500 mg/kg.

Take Protamine sulfate: the “i.v. LD50” value in data set [4] (i.v., comparison agents, species not given) is reported as 44 mg/kg.

Turning to `CCN1C(=O)C=CC1=O` [N-ethylmaleimide (NEM), N-ethylmaleimide], in data set [5], the “Effect on cell adhesion on an ionene-coated surface” value is given as “inhibited cell adhesion on an ionene-coated surface”.

Regarding `C[N+](C)(CBr)CCCC[N+](C)(C)CBr`, the LD50 in “in vivo” (ip) and in the data set “in vivo” (po) was greater than 1000 mg/kg in each case.

In data set [4] (in vivo, iv), `Cc1cc2nc3ccc(N(C)C)cc3[s+]c2cc1N` [toluidine blue] returned an LD50 of 45 mg/kg.

Consider `NCCCCNCCCN` [Spermidine, NH2 (CH2)3 --NH--(CH2)4 NH2], for which the “Binding to DNA” value in the data set with DNA is given as “bind to DNA”.

As usually defined, the LD50 is the dose expected to kill half of the subjects tested. Low values mean greater toxicity, high ones lower toxicity.
